Data from patent US20250296971A1, “GASTRIC INHIBITORY PEPTIDE RECEPTOR LIGANDS” (priority 2021, published 2025).
Like-named read-outs stand apart in the source and are kept apart here. *1 amine or outer side, *2 acyl side, *3 side chain or, on linkers, in order; H or OH if unused. Where a SMILES comes first, the peptide text is derived from it. Bridges are numbered along the chain shown (N, C = ends). Side-chain parts run from the residue outwards. [ ]: non-standard residue; d: D form. The star is where a group is joined. X2 = O=C(O)CN1CCN(CC(=O)O)CCN(CC(=O)N[C@@H](CCC(=O)NC[C@H](O)[C@@H](O)[C@H](O)[C@H](O)CO)C(=O)*)CCN(CC(=O)O)CC1; X5 = NC(=O)[C@H](CCCCNC(=O)CN1CCN(CC(=O)O)CCN(CC(=O)O)CCN(CC(=O)O)CC1)NC(=O)CCC(=O)NCCCOCCOCCOCCCN*; DOTA(Lu) = O=C1CN2CCN3CCN(CC(=O)*)CCN(CC2)CC(=O)[O][Lu]([O]1)[O]C(=O)C3; NH(1-deoxy-D-glucityl) = OC[C@@H](O)[C@@H](O)[C@H](O)[C@@H](O)CN*; DOTA = O=C(O)CN1CCN(CC(=O)O)CCN(CC(=O)*)CCN(CC(=O)O)CC1; Trp(5-Cl) = N[C@@H](Cc1c[nH]c2ccc(Cl)cc12)C(=O)O; Pyridine(2,6-diCH2) = c1cc(C[*:1])nc(C[*:2])c1; Nip(3R) = O=C([C@@H]1CCCN([*:1])C1)[*:2]; Pro(4R-NH2) = N[C@H]1CN[C@H](C(=O)O)C1; 1Nal = N[C@@H](Cc1cccc2ccccc12)C(=O)O; mXylylene = c1cc(C[*:1])cc(C[*:2])c1; Glutaryl = O=C(CCCC(=O)[*:2])[*:1]; X7 = c1cc(CSCCN[*:2])cc(C[*:1])c1; Hyp = O=C(O)[C@@H]1C[C@@H](O)CN1; X1 = O=C(CN1CCC(N[*:1])CC1)[*:2]; Aic = NC1(C(=O)O)Cc2ccccc2C1; Suc = O=C(CCC(=O)[*:2])[*:1]; X28 = O=C(CCc1ccc2ccccc2c1)*; hSer = N[C@@H](CCO)C(=O)O; Api = NC1(C(=O)O)CCNCC1; Thp = NC1(C(=O)O)CCOCC1; AEEA = NCCOCCOCC(=O)O; Aib = CC(C)(N)C(=O)O

Biological target: T1, GIPR (CHO-K1-hGIPR cells) (Homo sapiens, UniProt P48546)
T1 construct: host or cells: CHO-K1
T1 sequence (P48546 22-466): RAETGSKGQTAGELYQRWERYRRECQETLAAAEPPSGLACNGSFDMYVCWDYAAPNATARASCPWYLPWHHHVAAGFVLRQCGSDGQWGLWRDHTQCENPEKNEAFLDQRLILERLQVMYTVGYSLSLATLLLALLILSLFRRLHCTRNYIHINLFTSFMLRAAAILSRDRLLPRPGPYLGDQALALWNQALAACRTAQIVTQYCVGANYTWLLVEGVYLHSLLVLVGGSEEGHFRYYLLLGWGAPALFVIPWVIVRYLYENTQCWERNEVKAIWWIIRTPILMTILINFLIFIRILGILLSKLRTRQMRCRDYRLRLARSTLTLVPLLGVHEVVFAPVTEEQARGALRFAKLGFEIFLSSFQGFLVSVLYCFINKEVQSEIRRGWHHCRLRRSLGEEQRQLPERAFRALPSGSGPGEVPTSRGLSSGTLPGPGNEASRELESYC
Assay: FACS binding assay
Procedure, shortened: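 CHO-K1 cells expressing human GIPR, washed in PBS/1% FCS, then stained with 1 μg/mL APC-streptavidin for 30 min on ice.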

[1] = competition with 20 nM GIP-057, 4° C., 1 hour, read-out: pIC50 Category (converted)
[2] = competition with 20 nM GIP-057, 4° C. for 1 hour, read-out: pIC50 Category (converted)

| Compound | IC50 [1] [µM] | IC50 [2] [µM] | also measured |
| --- | --- | --- | --- |
| CC[C@H](C)[C@@H]1NC(=O)[C@H](CC(C)C)NC(=O)C2(CCN(C(=O)CCCC(=O)NC[C@H](O)[C@@H](O)[C@H](O)[C@H](O)CO)CC2)NC(=O)[C@@H](NC(=O)[C@@H](CC(C)C)NC(=O)[C@H](CCC(=O)O)NC(=O)[C@@H]2C[C@@H](N)CN2C(=O)[C@H](Cc2c[nH]c3ccc(Cl)cc23)NC(=O)[C@H](Cc2c[nH]c3ccccc23)NC(=O)[C@H](CC(=O)O)NC(=O)[C@@H](CCC(=O)NC[C@H](O)[C@@H](O)[C@H](O)[C@H](O)CO)NC(=O)COCCOCCNC(=O)CN2CCN(CC(=O)O)CCN(CC(=O)O)CCN(CC(=O)O)CC2)CSCc2cccc(n2)CSC[C@@H](C(=O)NC2CCN(CC(=O)N[C@H](CCC(=O)NC[C@H](O)[C@@H](O)[C@H](O)[C@H](O)CO)C(N)=O)CC2)NC1=O [GIP-044, DOTA-02Oc-glu(AGLU)-Asp-Trp-5Clw-Tap-Glu-leu-[Cys(2Lut)-Apc(AGLU-Glutar)-Leu-Ile-Cys]-APAc-glu(AGLU)-NH2] ({DOTA-AEEA}-[dE](NH(1-deoxy-D-glucityl))DW[Trp(5-Cl)][Pro(4R-NH2)]E[dL]C[Api]([Glutaryl-NH(1-deoxy-D-glucityl)])LIC[X1][dE](NH(1-deoxy-D-glucityl))-NH2; linker 8-12 via Pyridine(2,6-diCH2)) | < 0.01 |  |  |
| CC[C@H](C)[C@@H]1NC(=O)[C@H](CC(C)C)NC(=O)C(C)(C)NC(=O)[C@@H](NC(=O)[C@H](CC(C)C)NC(=O)[C@H](CCC(=O)O)NC(=O)[C@@H]2CCCN(C(=O)[C@H](Cc3cccc4ccccc34)NC(=O)[C@H](Cc3c[nH]c4ccccc34)NC(=O)[C@H](CC(=O)O)NC(C)=O)C2)CSCc2cccc(c2)CSC[C@@H](C(N)=O)NC1=O [GIP-342, Ac-Asp-Trp-1Ni-Rni-Glu-Leu-[Cys(3MeBn)-Aib-Leu-Ile-Cys]-NH2] (Ac-DW[1Nal][Nip(3R)]ELC[Aib]LIC-NH2; linker 7-11 via mXylylene) |  | > 1 |  |
| CC[C@H](C)[C@@H]1NC(=O)[C@H](CC(C)C)NC(=O)C2(CCN(C(=O)CN3CCN4CCN5CCN(CC3)CC(=O)[O][Lu]([O]C(=O)C5)[O]C(=O)C4)CC2)NC(=O)[C@@H](NC(=O)[C@@H](CC(C)C)NC(=O)[C@H](CCC(=O)O)NC(=O)[C@@H]2C[C@@H](N)CN2C(=O)[C@H](Cc2c[nH]c3ccc(Cl)cc23)NC(=O)[C@H](Cc2c[nH]c3ccccc23)NC(=O)[C@H](CC(=O)O)NC(=O)CCCC(=O)NC[C@H](O)[C@@H](O)[C@H](O)[C@H](O)CO)CSCc2cccc(n2)CSC[C@@H](C(=O)NC2CCN(CC(=O)N[C@H](CCC(=O)NC[C@H](O)[C@@H](O)[C@H](O)[C@H](O)CO)C(N)=O)CC2)NC1=O [GIP-067, AGLU-Glutar-Asp-Trp-5Clw-Tap-Glu-leu-[Cys(2Lut)-Apc(LuDOTA)-Leu-Ile-Cys]-APAc-glu(AGLU)-NH2] ({NH(1-deoxy-D-glucityl)-Glutaryl}-DW[Trp(5-Cl)][Pro(4R-NH2)]E[dL]C[Api](DOTA(Lu))LIC[X1][dE](NH(1-deoxy-D-glucityl))-NH2; linker 7-11 via Pyridine(2,6-diCH2)) |  |  | pIC50 Category (competition with 20 nM GIP-057, 4° C., 1 hour): A (pIC50 values>8.0) |
| CC[C@H](C)[C@@H]1NC(=O)[C@H](CC(C)C)NC(=O)C2(CCOCC2)NC(=O)[C@@H](NC(=O)[C@@H](CC(C)C)NC(=O)[C@H](CCC(=O)O)NC(=O)[C@@H]2C[C@@H](O)CN2C(=O)[C@H](Cc2c[nH]c3ccc(Cl)cc23)NC(=O)[C@H](Cc2c[nH]c3ccccc23)NC(=O)[C@H](CC(=O)O)NC(C)=O)CSCc2cccc(n2)CSC[C@@H](C(N)=O)NC1=O [GIP-180, Ac-Asp-Trp-5Clw-Hyp-Glu-leu-[Cys(2Lut)-Thp-Leu-Ile-Cys]-NH2] (Ac-DW[Trp(5-Cl)][Hyp]E[dL]C[Thp]LIC-NH2; linker 7-11 via Pyridine(2,6-diCH2)) | < 0.01 |  |  |
| CC[C@H](C)[C@@H]1NC(=O)[C@H](CC(C)C)NC(=O)C(C)(C)NC(=O)[C@@H](NC(=O)[C@@H](CC(C)C)NC(=O)[C@H](CCC(=O)O)NC(=O)[C@@H]2CCCN2C(=O)[C@H](Cc2c[nH]c3ccc(Cl)cc23)NC(=O)[C@H](Cc2c[nH]c3ccccc23)NC(=O)[C@H](CC(=O)O)NC(=O)CN2CCC(NC(=O)CN3CCN4CCN5CCN(CC3)CC(=O)[O][Lu]([O]C(=O)C4)[O]C(=O)C5)CC2)CSCc2cccc(c2)CSCCNC1=O [GIP-161, LuDOTA-APAc-Asp-Trp-5Clw-Pro-Glu-leu-[Cys(3MeBn)-Aib-Leu-Ile-AET]] ({DOTA(Lu)}-[X1]DW[Trp(5-Cl)]PE[dL]C[Aib]LI; linker 8-C via X7) |  |  | IC50 (pIC50 Category, competition with 20 nM GIP-057, 4° C., 1 hour): < 0.01 µM |
| CC[C@H](C)[C@@H]1NC(=O)[C@H](CC(C)C)NC(=O)[C@H](C)NC(=O)[C@@H](NC(=O)[C@H](CC(C)C)NC(=O)[C@H](CCC(=O)O)NC(=O)[C@@H]2CCCN2C(=O)[C@H](Cc2c[nH]c3ccccc23)NC(=O)[C@H](Cc2c[nH]c3ccccc23)NC(=O)[C@H](CC(=O)O)NC(=O)[C@H](Cc2ccc(O)cc2)NC(=O)[C@@H](N)CCSC)CSCc2cccc(c2)CSC[C@@H](C(N)=O)NC1=O [GIP-254] (H-MYDWWPELCALIC-NH2; linker 9-13 via mXylylene) |  | 0.01 to 0.0794 |  |
| CC[C@H](C)[C@@H]1NC(=O)[C@H](CC(C)C)NC(=O)C(C)(C)NC(=O)[C@@H](NC(=O)[C@@H](CC(C)C)NC(=O)[C@H](CCC(=O)O)NC(=O)[C@@H]2CCCN2C(=O)[C@H](Cc2c[nH]c3ccccc23)NC(=O)[C@H](Cc2c[nH]c3ccccc23)NC(=O)[C@H](CC(=O)O)NC(=O)CCc2ccc3ccccc3c2)CSCc2cccc(c2)CSC[C@@H](C(=O)NCCCOCCOCCOCCCNC(=O)CCC(=O)N[C@@H](CCCCNC(=O)CN2CCN(CC(=O)O)CCN(CC(=O)O)CCN(CC(=O)O)CC2)C(N)=O)NC1=O [GIP-281, Nph2p-Asp-Trp-Trp-Pro-Glu-leu-[Cys(3MeBn)-Aib-Leu-Ile-Cys]-Ttds-Lys(DOTA)-NH2] (X28-DWWPE[dL]C[Aib]LIC-X5; linker 7-11 via mXylylene) |  | 0.1 to 0.794 |  |
| CC[C@H](C)[C@@H]1NC(=O)[C@H](CC(C)C)NC(=O)[C@H](C)NC(=O)[C@@H](NC(=O)[C@H](CC(C)C)NC(=O)[C@H](CCC(=O)O)NC(=O)[C@@H]2CCCN2C(=O)[C@H](Cc2c[nH]c3ccccc23)NC(=O)[C@H](Cc2c[nH]c3ccccc23)NC(=O)[C@@H](CC(=O)O)NC(=O)[C@H](Cc2ccc(O)cc2)NC(=O)[C@@H](N)CCSC)CSCc2cccc(c2)CSC[C@@H](C(N)=O)NC1=O [GIP-307, H-Met-Tyr-asp-Trp-Trp-Pro-Glu-Leu-[Cys(3MeBn)-Ala-Leu-Ile-Cys]-NH2] (H-MY[dD]WWPELCALIC-NH2; linker 9-13 via mXylylene) |  | 0.1 to 0.794 |  |
| CC[C@H](C)[C@@H]1NC(=O)[C@H](CC(C)C)NC(=O)[C@@H](C)NC(=O)[C@@H](NC(=O)[C@@H](CC(C)C)NC(=O)[C@H](CCC(=O)O)NC(=O)[C@@H]2CCCN2C(=O)[C@H](Cc2c[nH]c3ccccc23)NC(=O)[C@H](Cc2c[nH]c3ccccc23)NC(=O)CCC(=O)O)CSCc2cccc(c2)CSC[C@@H](C(N)=O)NC1=O [GIP-318, HO-Succinyl-Trp-Trp-Pro-Glu-leu-[Cys(3MeBn)-ala-Leu-Ile-Cys]-NH2] (Suc-WWPE[dL]C[dA]LIC-NH2; linker 6-10 via mXylylene) |  | 0.1 to 0.794 |  |
| CC[C@H](C)[C@@H]1NC(=O)[C@H](CC(C)C)NC(=O)C2(CCN(C(=O)[C@H](CCC(=O)NC[C@H](O)[C@@H](O)[C@H](O)[C@H](O)CO)NC(=O)CN3CCN(CC(=O)O)CCN(CC(=O)O)CCN(CC(=O)O)CC3)CC2)NC(=O)[C@@H](NC(=O)[C@@H](CC(C)C)NC(=O)[C@H](CCC(=O)O)NC(=O)[C@@H]2C[C@@H](O)CN2C(=O)[C@H](Cc2c[nH]c3ccc(Cl)cc23)NC(=O)[C@H](Cc2c[nH]c3ccccc23)NC(=O)[C@H](CCO)NC(=O)CN2CCC(NC(=O)CCCC(=O)NC[C@H](O)[C@@H](O)[C@H](O)[C@H](O)CO)CC2)CSCc2cccc(n2)CSC[C@@H](C(=O)NC2CCN(CC(=O)N[C@H](CCC(=O)NC[C@H](O)[C@@H](O)[C@H](O)[C@H](O)CO)C(N)=O)CC2)NC1=O [GIP-047, AGLU-Glutar-APAc-Hse-Trp-5Clw-Hyp-Glu-leu-[Cys(2Lut)-Apc(DOTA-glu(AGLU))-Leu-Ile-Cys]-APAc-glu(AGLU)-NH2] ({NH(1-deoxy-D-glucityl)-Glutaryl}-[X1][hSer]W[Trp(5-Cl)][Hyp]E[dL]C[Api](X2)LIC[X1][dE](NH(1-deoxy-D-glucityl))-NH2; linker 8-12 via Pyridine(2,6-diCH2)) | 0.01 to 0.0794 |  |  |
| CC[C@H](C)[C@@H]1NC(=O)[C@H](CC(C)C)NC(=O)C2(Cc3ccccc3C2)NC(=O)[C@@H](NC(=O)[C@@H](CC(C)C)NC(=O)[C@H](CCC(=O)O)NC(=O)[C@@H]2C[C@@H](O)CN2C(=O)[C@H](Cc2c[nH]c3ccc(Cl)cc23)NC(=O)[C@H](Cc2c[nH]c3ccccc23)NC(=O)[C@H](CC(=O)O)NC(C)=O)CSCc2cccc(n2)CSC[C@@H](C(N)=O)NC1=O [GIP-206, Ac-Asp-Trp-5Clw-Hyp-Glu-leu-[Cys(2Lut)-Aic-Leu-Ile-Cys]-NH2] (Ac-DW[Trp(5-Cl)][Hyp]E[dL]C[Aic]LIC-NH2; linker 7-11 via Pyridine(2,6-diCH2)) | < 0.01 |  |  |
